From ChEMBL document CHEMBL4007475, “Green synthesis of novel spiro-indenoquinoxaline derivatives and their cholinesterases inhibition activity” (Bioorg Med Chem, 2017)

How the values were obtained:
[1] = molecular target: Acetylcholinesterase (Homo sapiens, UniProt P22303); assay: Inhibition of acetylcholinesterase (unknown origin) using acetylthiocholine as substrate preincubated for 20 mins followed by substrate addition by Ellmans method
[2] = molecular target: Cholinesterase (Homo sapiens, UniProt P06276); assay: Inhibition of butyrylcholinesterase (unknown origin) using acetylthiocholine as substrate preincubated for 20 mins followed by substrate addition by Ellmans method
Sequence of Cholinesterase (P06276 whole entry): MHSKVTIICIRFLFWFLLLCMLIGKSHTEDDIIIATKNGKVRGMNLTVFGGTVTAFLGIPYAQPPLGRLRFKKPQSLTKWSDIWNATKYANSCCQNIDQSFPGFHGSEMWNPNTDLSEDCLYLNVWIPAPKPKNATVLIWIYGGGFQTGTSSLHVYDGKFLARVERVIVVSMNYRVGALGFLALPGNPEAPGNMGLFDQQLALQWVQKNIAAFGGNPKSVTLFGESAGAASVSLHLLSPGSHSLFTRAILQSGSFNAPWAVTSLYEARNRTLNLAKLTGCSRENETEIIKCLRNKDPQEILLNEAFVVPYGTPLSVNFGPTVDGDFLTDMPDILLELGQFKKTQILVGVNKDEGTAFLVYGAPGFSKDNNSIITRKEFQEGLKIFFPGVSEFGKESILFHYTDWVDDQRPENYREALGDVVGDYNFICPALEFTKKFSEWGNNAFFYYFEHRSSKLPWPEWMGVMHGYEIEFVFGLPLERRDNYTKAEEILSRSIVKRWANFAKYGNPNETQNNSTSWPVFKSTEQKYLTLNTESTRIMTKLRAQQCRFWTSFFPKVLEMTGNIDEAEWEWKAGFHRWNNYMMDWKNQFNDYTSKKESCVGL

[3] = species on record: Homo sapiens; assay: Selectivity index, ratio of IC50 for butyrylcholinesterase (unknown origin) to IC50 for acetylcholinesterase (unknown origin)
[4] = species on record: Homo sapiens; assay: Selectivity index, ratio of IC50 for acetylcholinesterase (unknown origin) to IC50 for butyrylcholinesterase (unknown origin)
[5] = tested on: HepG2; assay: Cytotoxicity against human HepG2 cells after 48 hrs by MTT assay; type: cell-based; settings: HepG2, 48 h
[6] = species on record: Homo sapiens; assay: Selectivity for acetylcholinesterase (unknown origin) over butyrylcholinesterase (unknown origin)

Sequence of Acetylcholinesterase (P22303 whole entry): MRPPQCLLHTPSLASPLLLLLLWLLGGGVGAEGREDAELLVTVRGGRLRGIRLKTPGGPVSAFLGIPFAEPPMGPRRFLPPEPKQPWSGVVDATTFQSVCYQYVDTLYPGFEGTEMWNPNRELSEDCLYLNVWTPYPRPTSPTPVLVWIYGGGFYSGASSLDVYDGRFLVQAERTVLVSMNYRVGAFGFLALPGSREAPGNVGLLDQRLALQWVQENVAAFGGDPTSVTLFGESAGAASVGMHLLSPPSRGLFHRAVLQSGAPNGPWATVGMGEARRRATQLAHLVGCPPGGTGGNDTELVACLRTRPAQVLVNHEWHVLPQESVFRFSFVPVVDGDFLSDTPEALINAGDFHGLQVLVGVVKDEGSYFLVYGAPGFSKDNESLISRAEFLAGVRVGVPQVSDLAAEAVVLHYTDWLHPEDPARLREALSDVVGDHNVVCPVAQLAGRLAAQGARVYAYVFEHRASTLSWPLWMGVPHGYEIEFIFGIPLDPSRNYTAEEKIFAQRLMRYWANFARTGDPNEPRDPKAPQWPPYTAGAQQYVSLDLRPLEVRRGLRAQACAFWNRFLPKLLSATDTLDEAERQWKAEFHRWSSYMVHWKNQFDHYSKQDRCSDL

SMILES	IC50 [1] [µM]	IC50 [2] [µM]	Ratio IC50 [3]	Ratio IC50 [4]	IC50 [5] [µM]	Selectivity ratio [6]
N#CC1=C(N)N(Cc2ccccc2)C(NCc2ccccc2)=C([N+](=O)[O-])C12c1ccccc1-c1nc3ccccc3nc12 (stereo unspecified)	5.3	8.6	1.62	0.616	190	
N#CC1=C(N)N2CCCNC2=C([N+](=O)[O-])C12c1ccccc1-c1nc3ccc([N+](=O)[O-])cc3nc12 (stereo unspecified)	3.9	9.7	2.49	0.402	161	
N#CC1=C(N)N2CCNC2=C([N+](=O)[O-])C12c1ccccc1-c1nc3ccc([N+](=O)[O-])cc3nc12 (stereo unspecified)	6.5	9.6	1.48	0.677	174	
N#CC1=C(N)N2CCCNC2=C([N+](=O)[O-])C12c1ccccc1-c1nc3ccccc3nc12 (stereo unspecified)	4.2	10.2	2.43	0.411	174	
CC1(C)CNC2=C([N+](=O)[O-])C3(C(C#N)=C(N)N2C1)c1ccccc1-c1nc2ccccc2nc13 (stereo unspecified)	4.3	9.8	2.28	0.438	184	
Cc1cc2nc3c(nc2cc1C)C1(C(C#N)=C(N)N2CCCNC2=C1[N+](=O)[O-])c1ccccc1-3 (stereo unspecified)	5.7	9.5	1.67	0.6	171	
N#CC1=C(N)N(Cc2ccccc2)C(NCc2ccccc2)=C([N+](=O)[O-])C12c1ccccc1-c1nc3ccc([N+](=O)[O-])cc3nc12 (stereo unspecified)	4.4	9.1	2.07	0.483	167	
Cc1cc2nc3c(nc2cc1C)C1(C(C#N)=C(N)N2CC(C)(C)CNC2=C1[N+](=O)[O-])c1ccccc1-3 (stereo unspecified)	4	8.8	2.2	0.454	180	
COc1cc2c(cc1OC)C(=O)C(CC1CCN(Cc3ccccc3)CC1)C2 (stereo unspecified)						10000
Cc1cc2nc3c(nc2cc1C)C1(C(C#N)=C(N)N2CCNC2=C1[N+](=O)[O-])c1ccccc1-3 (stereo unspecified)	6.6	7.3	1.11	0.904	176	
CC1(C)CNC2=C([N+](=O)[O-])C3(C(C#N)=C(N)N2C1)c1ccccc1-c1nc2ccc([N+](=O)[O-])cc2nc13 (stereo unspecified)	3.6	10.1	2.81	0.356	169	
N#CC1=C(N)N2CCNC2=C([N+](=O)[O-])C12c1ccccc1-c1nc3ccccc3nc12 (stereo unspecified)	6.4	8.4	1.31	0.761	194	
Cc1cc2nc3c(nc2cc1C)C1(C(C#N)=C(N)N(Cc2ccccc2)C(NCc2ccccc2)=C1[N+](=O)[O-])c1ccccc1-3 (stereo unspecified)	5.8	8.9	1.53	0.651	174	
